From ChEMBL document CHEMBL1150990, “Studies of the inactivation of general acyl-coa dehydrogenase by (1R)- and (1S)-(methylenecyclopropyl)acetyl-coa” (Bioorg Med Chem Lett, 1992)

Legend:
[1] = Inactivation of general acyl-CoA dehydrogenase by the compound was determined and expressed as kinact
[2] = Partition ratio of the inactivation of general acyl-CoA dehydrogenase by the compound was determined

| Structure (SMILES) | K inact [1] [s⁻¹] | Ratio [2] |
| --- | --- | --- |
| C=C1C[C@H]1CC(=O)SCCNC(=O)CCNC(=O)[C@H](O)C(C)(C)COP(=O)(O)OP(=O)(O)OC[C@H]1O[C@@H](n2cnc3c(N)ncnc32)[C@H](O)[C@@H]1OP(=O)(O)O | 0.0163 | 4 |
| C=C1C[C@@H]1CC(=O)SCCNC(=O)CCNC(=O)[C@H](O)C(C)(C)COP(=O)(O)OP(=O)(O)OC[C@H]1O[C@@H](n2cnc3c(N)ncnc32)[C@H](O)[C@@H]1OP(=O)(O)O | 0.0173 | 3.4 |
